Experimental data published in patent US7166472B2, “Method for the identification of agents that inhibit or promote cataracts and uses thereof” (The General Hospital Corporation, priority 2000, dated 2007).

Key:
[1] = Hydrogen peroxide assay (DCF fluorometric); type: biochemical; conditions: for hydrogen peroxide production: Cu(II) present, dark
Experimental: Hydrogen Peroxide Assay—The fluorometric assay for hydrogen peroxide is based on the dichlorofluorescein diacetate (DCF) method (Molecular Probes, Eugene, Oreg.). The DCF solution (5 mM) in 100% ethanol was deacetylated in the presence of 0.01 M NaOH for 30 minutes and neutralized. Horseradish peroxidase (200 U/ml) was then added and the DCF concentration adjusted to 200 μM in PBS. The reaction solutions were carried out in PBS, pH 7.4, in a 96-well format plate (total volume=300 μL/well) and contained a test compound (KYN, 3-HK, 3-HAA, ANA, or ASC, each at 10 μM), deacetylated DCF (20 μM), and Cu(II)-glycine (1 μM) as indicated, incubated at 37° C. for 60 minutes. […] Abolition of the reading by co-incubation with catalase (1000 U/ml) was used for establishing H2O2 specificity. The fluorescent readings were recorded by a Packard FLURORCOUNT™ fluorescent plate reader with a 485 nm excitation filter and 530 nm emission filter. Concentrations were determined by comparison to a standard curve using reagent grade hydrogen peroxide in CHELEX™ chelating ion exchanae resin-treated PBS buffer, pH 7.4.
Reactions were conducted in the absence of added Cu(II), in the presence of added glycine-complexed Cu(II) (1 μM), in the presence of added glycine-complexed Cu(II) (1 μM) and catalase (1000 U/ml), or with added glycine-complexed Cu(II) (1 μM) and the copper chelator triethylenetetramine (TETA, 200 μM).

[2] = biological target: bovine serum albumin (BSA) (Bos taurus, UniProt P02769); conditions: co-incubation with Cu(II), 5 days 37° C. dark
bovine serum albumin (BSA), sequence (P02769 25-607): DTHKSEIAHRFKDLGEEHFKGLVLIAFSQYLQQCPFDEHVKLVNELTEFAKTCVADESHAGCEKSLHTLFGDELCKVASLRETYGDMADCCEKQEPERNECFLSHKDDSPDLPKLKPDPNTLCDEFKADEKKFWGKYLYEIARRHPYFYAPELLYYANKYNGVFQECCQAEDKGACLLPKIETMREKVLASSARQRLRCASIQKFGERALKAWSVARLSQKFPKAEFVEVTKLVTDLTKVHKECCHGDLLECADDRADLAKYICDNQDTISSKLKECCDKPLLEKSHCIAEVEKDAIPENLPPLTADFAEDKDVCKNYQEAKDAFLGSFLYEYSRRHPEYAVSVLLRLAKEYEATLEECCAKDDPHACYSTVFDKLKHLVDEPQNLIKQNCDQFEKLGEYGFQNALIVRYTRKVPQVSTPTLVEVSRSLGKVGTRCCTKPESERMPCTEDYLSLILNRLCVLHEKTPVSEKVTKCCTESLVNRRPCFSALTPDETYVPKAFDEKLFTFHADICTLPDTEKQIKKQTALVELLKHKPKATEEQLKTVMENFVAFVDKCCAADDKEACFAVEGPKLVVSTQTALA

[3] = Metal reduction assay, Cu(II) to Cu(I) (BC/BCA indicator); type: biochemical; conditions: test compound 10 μM, Cu(II)-glycine 25 μM, PBS pH 7.4, 37° C., dark, one hour
Experimental: Metal Reduction Assays—Assays were performed using a 96-well microtiter plate (Costar, Mass.). Test compounds from the kynurenine pathway (10 μM) or, as a positive control, ascorbic acid (ASC, 10 μM) were co-incubated with either Fe(III)-citrate (25 μM) and the Fe(II) indicator bathophenanthroline disulfonic acid (BP, 250 μM), or Cu(II)-glycine (25 μM) and the Cu(I) indicator bathocuproine disulfonic acid (BC) or bicinchoninic acid (BCA, 250 μM). Incubations were conducted in PBS, pH 7.4, at 37° C. in the dark for one hour. Absorbencies were then measured using a plate reader (SPECTRAmax Plus, Molecular Devices, CA) at the appropriate wavelengths: Fe(II)-BP complex at 535 nm (the known molar absorption coefficient, M535,=22140 M^−1 cm^−1), Cu(I)-BC complex at 483 nm, M483=12250 M^−1cm^−1), or Cu(I)-BCA complex at 562 nm, M562=7700 M^−1cm^−1). In control samples, absorbance from the metal ion and indicator in the absence of test compound and the absorbance of test compound in the presence of metal ions, but in the absence of indicator, were determined. The absorbencies from these controls were deducted from those obtained in the presence of the test compound, metal and indicator to yield the net absorbance (ΔA). Fe(II) or Cu(I) concentrations (μM) were calculated according to the formula: C(μM)=ΔA*10^6/Mλ.
The compounds comprising the kynurenine pathway (FIG. 1) were assayed for their ability to reduce […] and Cu(II) (FIG. 2A). […] Values represent the mean±SD for three independent measurements.

[4] = Hydrogen peroxide assay (DCF fluorometric); type: biochemical; conditions: reacting with Cu(II), 37° C., dark

## Nc1c(O)cccc1C(=O)CC(N)C(=O)O (centres unmarked) [3-HK, 3-hydroxykynurenine]
[1]
  hydrogen peroxide generated relative to available Cu(II): approximately 3 fold
[1]; ambient gas conditions, CHELEX-treated PBS, FIG. 4C
  hydrogen peroxide generated: approx. 3 μM
[1]; ambient oxygen tension
  hydrogen peroxide production: 1.49 μM H2O2
[1]; high oxygen tension
  hydrogen peroxide production: 1.84 μM H2O2
[1]; low oxygen tension (continuous argon sparging)
  hydrogen peroxide production: 0.35 μM H2O2
[2]
  BSA protein depletion with Cu(II): the monomer was depleted without emergence of apparent detectable cross-linked species
[3]
  reduction of Cu(II): 100%
[4]
  time dependence of hydrogen peroxide generation: continuous over five hours
